What all share (assay): SPR binding of MBP-PDZ analyte to immobilised biotinylated peptides
Background: SPR reads the build-up and loss of mass on a sensor chip optically.

The target of test [1] is T1, SCRIB-34/4 tandem PDZ construct (Homo sapiens, UniProt Q14160).
T1 construct: residues 997–1093, 1097–1193 and 997–1193 of human SCRIB (Uniprot acc.: Q14160-1); made in house; host or cells: E. coli BL21 DE3
T1 sequence (Q14160 997-1193 isoform Q14160-1): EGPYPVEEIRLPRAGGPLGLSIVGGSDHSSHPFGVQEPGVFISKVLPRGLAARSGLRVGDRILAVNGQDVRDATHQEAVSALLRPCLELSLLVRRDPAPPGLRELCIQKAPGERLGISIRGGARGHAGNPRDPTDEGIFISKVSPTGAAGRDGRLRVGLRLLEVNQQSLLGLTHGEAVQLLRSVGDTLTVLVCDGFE
The conditions noted are these: SPR Biacore 2000, 25 C, steady state, 1:1 binding isotherm, MBP-PDZ 0-30 µM; to be considered with caution; read-out: tentative KD. The protocol: (§1) We opted for the surface plasmon resonance (SPR) method to measure these 190 (19 proteins×2 peptide versions×5 PDZ constructs) interactions. In SPR various concentrations of “analytes” (here, PDZ domains fused to the Maltose Binding Protein (MBP)) flow over surfaces presenting attached “ligands” (here, biotinylated peptides). The amount of analyte interacting with the ligand is measured and quantified in response units (RU). The intensity of this signal is proportional to the binding strength of the assayed interaction (Figure 5A). K [drawing 13] were obtained using a 1∶1 interaction model. However, these calculated K [drawing 14] were rather inaccurate especially for weak interactions. Therefore, we preferred to rank the binding strengths of the 190 interactions using normalised RU signals at equilibrium ( [drawing 15] ) rather than K [drawing 16] (see Methods for details). These normalised [drawing 17] values were plotted in form of a heat map (Figure 5B).
(§2) The cDNA encoding residues 448–572 and 613–752 of mouse MAGI-1 (UniProt acc.: Q6RHR9-1) encoding for MAGI1-2/6 (100% identical to human MAGI1-2/6) and MAGI1-3/6 (99% identical to human MAGI1-3/6) PDZ domains, respectively, were inserted into the NcoI/KpnI sites of the pETM-41 expression vector (EMBL) containing a 6×His-MBP tag followed by a TEV protease cleavage site. A similar cloning strategy was adopted for cDNA bearing residues 997–1093, 1097–1193 and 997–1193 of human SCRIB (Uniprot acc.: Q14160-1) encoding for SCRIB-3/4, SCRIB-4/4 PDZ domains and SCRIB-34/4 tandem PDZ construct, respectively.
(§3) Data were collected on a Biacore 2000 instrument (Biacore AB/GE Healthcare Bio-Sciences Corp., Piscataway, NJ, USA) at 25 [drawing 74] C. SPR experiments (ligand immobilisation and binding measurements) have been performed as described in Fournane et al.. Briefly, biotinylated peptides (instead of GST-fused recombinant peptides) were immobilised on CM5 sensorchips on which Neutravidin was previously attached. The MBP-PDZ domain analyte was injected at 8 to 10 different concentrations ranging from 0 up to 30 [drawing 75] M. Data were processed using the BiaEvaluation 3.2 software (Biacore AB/GE Healthcare Bio-Sciences Corp.) using “double referencing” [78] in which sensorgrams were corrected for buffer effects and bulk refractive index changes.
(§4) The steady-state binding signal ( [drawing 76] ) was derived by averaging the signals in a five second window at equilibrium. Steady-state analysis was performed by fitting the average signal [drawing 77] as a function of total MBP-PDZ concentrations, assuming a simple 1∶1 interaction binding isotherm model. […] Reasons for this inaccuracy are likely to be the following: 1. As previously described, several repetitions of all the measurements are required to determine accurate K [drawing 81] . In our case, such repetitions were not achievable in reasonable time due to the large amount of interactions measured in this study. 2. The highest injected analyte concentration restricts the maximal K [drawing 82] (weakest interaction) that can be accurately obtained. 3. A K [drawing 83] is estimated based on a mathematical extrapolation of observed [drawing 84] signals leading to additional uncertainty. Based on these reasons, we considered the calculated K [drawing 85] not as accurate enough to be used for absolute binding strength comparison in this study. We rather performed a relative analysis of binding strengths using directly [drawing 86] signals which are not biased by any mathematical assumption. We focussed on [drawing 87] signals obtained at 10 [drawing 88] M MBP-PDZ concentration, which have been systematically measured in duplicate. The [drawing 89] signal is directly proportional to the molecular weight of the analyte and the amount of immobilised ligand. Therefore, the [drawing 90] signals were normalised taking those into account before being used for binding strength comparison. […]

In a further test the target is T2, SCRIB-3/4 PDZ domain (Homo sapiens, UniProt Q14160).
T2 construct: cDNA bearing residues 997–1093, 1097–1193 and 997–1193 of human SCRIB (Uniprot acc.: Q14160-1); made in house; host or cells: E. coli BL21 DE3
T2 sequence (Q14160 997-1093 isoform Q14160-1): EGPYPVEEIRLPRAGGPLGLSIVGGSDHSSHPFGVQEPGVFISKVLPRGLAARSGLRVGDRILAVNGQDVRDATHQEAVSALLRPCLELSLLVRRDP
The conditions noted are these: SPR Biacore 2000, 25 C, steady state, 1:1 binding isotherm, MBP-PDZ 0-30 µM; to be considered with caution; read-out: tentative KD. On the procedure: as §1, §2, §3, §4

A further test has as its target T3, SCRIB-4/4 PDZ domain (Homo sapiens, UniProt Q14160).
T3 construct: residues 997–1093, 1097–1193 and 997–1193 of human SCRIB (Uniprot acc.: Q14160-1); made in house; host or cells: E. coli BL21 DE3
T3 sequence (Q14160 1097-1193 isoform Q14160-1): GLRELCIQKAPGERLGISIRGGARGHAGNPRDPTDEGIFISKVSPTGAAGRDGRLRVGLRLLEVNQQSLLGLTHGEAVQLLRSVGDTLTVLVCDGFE
Conditions: SPR Biacore 2000, 25 C, steady state, 1:1 binding isotherm, MBP-PDZ 0-30 µM; to be considered with caution; read-out: tentative KD. On the procedure: as §1, §2, §3, §4

Another test has as its target T4, MAGI1-2/6 PDZ domain (Mus musculus, UniProt Q6RHR9).
T4 construct: The cDNA encoding residues 448–572 and 613–752 of mouse MAGI-1 (UniProt acc.: Q6RHR9-1) encoding for MAGI1-2/6; made in house; host or cells: E. coli BL21 DE3
On the procedure: as §1, §2, §3, §4

A further test has as its target T5, MAGI1-3/6 PDZ domain (Mus musculus, UniProt Q6RHR9).
T5 construct: The cDNA encoding residues 448–572 and 613–752 of mouse MAGI-1 (UniProt acc.: Q6RHR9-1); made in house; host or cells: E. coli BL21 DE3
The conditions noted are these: SPR Biacore 2000, 25 C, steady state, 1:1 binding isotherm, MBP-PDZ 0-30 µM; to be considered with caution; read-out: tentative KD. On the procedure: as §1, §2, §3, §4

[2] abbreviates: SPR Biacore 2000, 25 C, steady state, 1:1 binding isotherm, MBP-PDZ 0-30 µM, to be considered with caution, read-out: tentative KD.

Like-named read-outs stand apart in the source and are kept apart here. Ends that are not written are not given here.

T4 sequence (Q6RHR9 448-572): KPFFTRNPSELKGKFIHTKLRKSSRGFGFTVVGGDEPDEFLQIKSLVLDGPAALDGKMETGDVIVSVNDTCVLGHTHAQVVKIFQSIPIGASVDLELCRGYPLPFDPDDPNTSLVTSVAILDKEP
T5 sequence (Q6RHR9 613-752): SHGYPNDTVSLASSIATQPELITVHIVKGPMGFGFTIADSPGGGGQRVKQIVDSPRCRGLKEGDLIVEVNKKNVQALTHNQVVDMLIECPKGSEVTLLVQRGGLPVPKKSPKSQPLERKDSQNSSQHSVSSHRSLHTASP

As a reminder, the Kd is a measure of binding affinity in units of concentration. On to CNTVTVETVV [MAS_10], for which, in test [1], the Kd amounted to 3 µM. Take GGWVEKETYY [ATP1A1_10]: the Kd on SCRIB-3/4 PDZ domain is 88 µM. Turning to GSGAGSETSV [VANG2_05], the dissociation constant Kd in test [1] was 4 µM. For the sequence KDECVIATEV [DLL1_10], the Kd on SCRIB-4/4 PDZ domain amounted to 88 µM. For KPGKGSETVV [FZD4_10], at MAGI1-2/6 PDZ domain (setting [2]), the Kd worked out at 23 µM. Same read-out and setting: for NPDALPETLV [ARHGAP6_10] the value was 18 µM.

With NRVDSKETEC [ADAM17_10], the Kd in test [1] stood at 8 µM. For the sequence PMESGICTIV [TTC24_10], on MAGI1-3/6 PDZ domain, the Kd stood at 37 µM. For the sequence QDEKVKESYV [ABC1_10], the Kd in test [1] turned out to be 8 µM. Still for that read-out and setting: for QGRWDHETIV [TMEM215_10] the value was 9 µM. For SGGKRKETLV [NET1_10], the equilibrium dissociation constant (Kd) came to 37 µM on MAGI1-3/6 PDZ domain and 3 µM on MAGI1-2/6 PDZ domain (Table S3, column this study, SPR, read-out: this study (Kd)). In the case of SVWLRKETRV [CYSLTR2_10], the Kd was found to be 15 µM in test [1] and 202 µM on SCRIB-4/4 PDZ domain. VMRLQSETSV [VANG2_10]: the Kd on SCRIB-3/4 PDZ domain was determined as 12 µM; in test [1] it was 5 µM.

These data come from PMC3206016, “Putting into Practice Domain-Linear Motif Interaction Predictions for Exploration of Protein Networks” (PLoS ONE, 2011).
